Literature values, collected in US9643990B2, “Non-caloric sweeteners and methods for synthesizing” (Conagen Inc., priority 2014, dated 2017).

Conditions: background statement, no method given

| Compound | sweetness relative to sucrose |
| --- | --- |
| C=C1C[C@@]23CC[C@H]4[C@@](C)(CCC[C@@]4(C)C(=O)O[C@@H]4O[C@H](CO)[C@@H](O)[C@H](O)[C@H]4O)[C@@H]2CC[C@]1(O[C@@H]1O[C@H](CO)[C@@H](O)[C@H](O)[C@H]1O[C@@H]1O[C@H](CO)[C@@H](O)[C@H](O)[C@H]1O)C3 [stevioside, Stevioside] | 100-150 times sweeter than sucrose |
| Rebaudioside C | 40-60 times sweeter than sucrose |
| Dulcoside A | about 30 times sweeter than sucrose |
